# Experimental data from US4221794A, “Method of imparting immunomodulating and antiviral activity” (Newport Pharmaceuticals International, Inc., priority 1979, dated 1980).
# Structures can show the parent of a compound that is named as a salt.
# Legend:
# influenza virus [1] = assay: microbe, parasite or virus in culture; assay type: cell-based, influenza virus Type A/USSR 90 (HeLa cell cultures)
# guinea pig macrophages = assay: Lymphokine (MMF) induced guinea pig macrophage proliferation; assay type: cell-based; conditions: plus = immunostimulating, minus = immunoinhibiting, 0 = neither
# Experimental: 3. The macrophage represents a subpopulation of white blood cells which is an important component of the immune system in control of both cellular and humoral immunity. The assay system described below evaluates the substances studied as potentiators of macrophage function.
# Phytohemagglutinin (PHA) (HA-17) was purchased from Burroughs Wellcome. A preparation containing Macrophage Mitogen Factor (MMF) and Macrophage Activating Factor (MAF) was prepared from antigen-stimulated immune lymph node lymphocytes (guinea pig) as previously described by Hadden et al, Nature 257, 483-485 (1975). […] The active fraction was employed in both the proliferation and activation assays.
# Ficoll-hypaque purified human peripheral blood lymphocytes were prepared and PHA-induced lymphocyte proliferation was assayed by the incorporation of tritiated thymidine as described in Hadden et al., Cell. Immunol. 20, 98-103 (1975). Each compound was analyzed in the presence of suboptimal, optimal and supraoptimal concentrations of PHA (0.001, 0.01, 0.1 units/ml respectively). Paraffin oil-induced guinea pig peritoneal macrophages were prepared and incubated as monolayer culture (>98% pure macrophages). Lymphokine (MMF)-induced proliferation was assayed by the incorporation of tritiated thymidine at 3 and 5 days of culture as described, Hadden et al, Nature 257, 483-485 (1975). Lymphokine (MAF)-induced macrophage activation to kill Listeria monocytogenes following 5 days of culture in the presence or absence of MAF was performed during a 6 hour period as described in Hadden and England, Immunopharmacology, pages 87-100 (Plenum Press, 1977). Phagocytosis was quantitated during a 20-minute exposure to Listeria monocytogenes by counting the number of macrophages containing bacteria and the number of bacteria per phagocytic cell on gram stained monolayers in Labtek chambers. Intracellular killing of bacteria was evaluated by counting the number of cells containing bacteria and the number of bacteria/cell 6 hours after the initial 20 minute exposure. Parallel experiments in which macrophages were lysed and intracellular bacteria were cultured confirm the validity of bacterial activity determined by this manner in this system. The drugs were employed in each of the three systems over serial log concentration range in triplicate in the presence and absence of mitogen or lymphokine. Each type of experiment was performed at least three times. Previous experiments indicate a parallelism of response to pharmacologic modulation in the proliferation and achivation assays.
# (§1) Table 4 above presents the results of an evaluation of a number of these subject compounds as potentiators of the immune response. Three different test systems were used. The first involves a measure of the ability of the test compound to enhance the ability of mouse lymphocytes to proliferate in response to a plant mitogen (Con A). The second involves measuring the ability of the test compounds to enhance human lymphocyte proliferation in response to a second plant mitogen (PHA). The third system measures the ability of these test substances to enhance macrophage proliferation in response to a natural lymphokine (MMF, Macrophage Mitogenic Factor).
# influenza virus [2] = assay: Anti-influenza activity (overall); assay type: cell-based, several strains of A and B sub-types
# L-1210 leukemic cells = assay: Anti-leukemic activity, inhibition of L-1210 growth; assay type: cell-based, mouse; conditions: 96 hours
# Experimental: Anti-Leukemic Activity (Inhibition of L-1210 Growth)
# Leukemic cells isolated from mice bearing the L-1210 tumor are cultured in vitro and their growth can be measured by counting the number of cells in the culture over a period of time. The incorporation of a test substance into the media will prevent the growth of the leukemic cells, an indication of an effective anti-leukemic agent.
# I50 (concentration of drug inhibiting growth of L-1210) by % for the tested compounds was as follows:
# To Measure Inhibition of Leukemic Cell (L-1210) Growth
# Check to see that there is adequate cell growth in the stock cultures. Use cells 48-72 hours after transfers are done.
# Weigh out the drugs at 50 times the desired final concentration and made serial dilutions.
# Make up the final medium using 500 mls McCoy's 5A medium, 15% fetal calf serum, 5 mls penicillin-streptomycin solution, and 5 mls antibiotic-antimycotic solution and let it stand at room temperature.
# Using sterile technique, add 0.1 ml of the drug dilutions to each tube.
# Add an appropriate quantity of cells to the prepared medium. After mixing, remove a 0.5 ml sample, place it in a vial containing […] of saline, and count it on the Coulter Counter. Multiply the count by 40 to compensate for the 40 fold dilution (0.5 ml into […] and record the inoculum.
# Add 5 mls of cell suspension to each tube. Swirl the bottle every 4 tubes to insure a more uniform distribution of cells.
# Tighten the caps and place in the CO2 incubator at 36°-38° for 96 hours.
# After 96 hours remove the tubes from the incubator and count the contents of each on the Coulter Counter. Multiply all counts by 40 and average the four counts for each drug dilution. If the count is less than the inoculum, record 100% inhibition. If the count is greater than the average of the eight control counts, record 0% inhibition. For all other counts use the following formula: [formula] 100%-% servival=inhibition of growth due to treatment.
# [3] = tested on: Influenza A Swine 1976 (Hlsw -N1); assay type: cell-based; conditions: listed as 15418
# immune response = assay: Immunomodulating activity (overall); assay type: cell-based
# Text: (§2) The following three assay procedures are used to evaluate the ability of the test substances to modulate the activity of several classes of cells in the immune system. In these systems it is possible to identify both immunopotentiating activity (evidence by an enhancement of the parameter examined) as well as immunosuppressant activity (evidenced by an inhibition of the parameter examined).
# as §1
# mouse lymphocytes = assay: Mitogen (Con A) induced mouse lymphocyte (spleen cell) proliferation; assay type: cell-based; conditions: for Maximum Percent Change, Mitogen Induced (Con A) Mouse Lymph. Prolif.: plus = immunostimulating, minus = immunoinhibiting, 0 = neither
# Text: as §2
# 1. Mitogen-Induced Mouse Spleen Cell Assay
# Mouse spleen cells contain a population of both B and T lymphocytes which can be stimulated by a number of foreign substances (e.g., plant mitogens such as Con A) to proliferate. This enhanced proliferation is an indication of enhanced cell mediated immunity. The method below describes the system used to evaluate test substances as immunopotentiators.
# Concanavalin A (Calbiochem, La Jolla, California), Lot #210073, lyophilized in NaCl, was prepared first as a 1% solution and diluted as a 2×concentration for each dilution (0.5, 1.0, 2.5 μg/ml).
# Six to eight week old male Balb/c and C3 H inbred mice were obtained from the following sources: Flow Research Animals, Inc., Dublin, Virginia; Charles River Breeding Laboratories, Wilmington, Massachusetts; Laboratory Supply Company, Indianapolis, Indiana; and Lionel Strong Foundation, San Diego, California.
# Three to five mice were sacrificed by cervical dislocation and the spleens aseptically removed. Pooled spleens were minced and teased with sterile forceps; then strained through a double layer of nylon mesh. The cell suspension was washed once with 15 ml of RPMI 1640 supplemented with 5% fetal calf serum and antibiotics. Cells were cultured at a concentration of 10^6 cells/0.1 ml/well in micro-plates. Cultures were incubated in the presence or absence of mitogen in a humidified atmosphere containing 5% CO2 for 48 hours. The test compound was added to cultures at various concentrations concommitant with mitogen.
# Proliferation was assayed by the degree of incorporation of 1.0 μCi of [^3 H] thymidine over an 18 hour incubation period. Cultures were harvested by a MASH unit (Otto Hiller Co., Madison, Wisconsin) and thymidine incorporation was assayed by liquid scintillation spectrometry. Cultures were performed in triplicate and data are expressed as means plus or minus the standard error of the experimental means. Drug stimulation indices over control values were also calculated and portrayed graphically.
# as §1
# [4] = tested on: (Russian) influenza virus; assay: Inhibition of influenza virus replication, Russian; assay type: cell-based
# [5] = tested on: human peripheral blood lymphocytes; assay: Mitogen (PHA) induced human lymphocyte proliferation; assay type: cell-based; conditions: plus = immunostimulating, minus = immunoinhibiting, 0 = neither
# [6] = 1.0-10 (unit not printed), listed as 15418
compound,measurement,setting,value
CCCCCCC(CO)n1cnc2c(=O)[nH]cnc21 (stereo not shown) [NPT 15418],% Inhibition of Hemadsorption Foci,influenza virus [1]; Test Compound Conc. <10 μg/ml,16%
same,% Inhibition of Hemadsorption Foci,influenza virus [1]; Test Compound Conc. >100 μg/ml,52%
same,"Maximum Percent Change, Lymphokine Induced (MMF) Guinea Pig Mac. Prolif.",guinea pig macrophages; [6],80%
same,"Maximum Percent Change, Lymphokine Induced (MMF) Guinea Pig Mac. Prolif.",guinea pig macrophages; .01-1.0 (unit not given),12%
same,potentiation of anti-influenza activity by DIP.PAcBA salt,influenza virus [2],does potentiate the anti-influenza activity and Yes
same,inhibit the replication of different strains of influenza virus (number of strains),influenza virus [2]; concentrations ranging from 1-150 μg/ml,at least 4 different strains
same,I50 (concentration of drug inhibiting growth of L-1210),L-1210 leukemic cells,70 micrograms/ml
same,% Inhibition,[3],> 70%
same,potentiation of the immune response (in words),immune response,potentiation of the immune response has been observed
same,Potentiation of immunopotentiation by DIP.PAcBA salt,immune response; salt compared with parent compound,Yes
same,"% Stimulation, Mitogen Induced Murine Lymphocyte Proliferation","mouse lymphocytes; 01-1.0 μg/ml, listed as 15418",20-30%
same,"% Stimulation, Mitogen Induced Murine Lymphocyte Proliferation","mouse lymphocytes; 1.0-10 μg/ml, listed as 15418",> 50%
same,"Maximum Percent Change, Mitogen Induced (Con A) Mouse Lymph. Prolif.",mouse lymphocytes; [6],73%
same,"% Stimulation, Mitogen Induced Murine Lymphocyte Proliferation","mouse lymphocytes; 10-100 μg/ml, listed as 15418",20-30%
same,"Maximum Percent Change, Mitogen Induced (Con A) Mouse Lymph. Prolif.","mouse lymphocytes; 10-100 (unit not printed), listed as 15418",26%
same,"Maximum Percent Change, Mitogen Induced (Con A) Mouse Lymph. Prolif.","mouse lymphocytes; .01-1.0 (unit not printed), listed as 15418",41%
"CCCCCC[C@H]([C@H](C)O)n1cnc2c(N)ncnc21 (relative stereo) [NPT 15426, ERYTHRO-9-(2-HYDROXY-3-NONYL)-ADENINE. HCl]",inhibition at 10 µg/mL,"influenza virus [1]; unidentified influenza virus, read-out: % Inhibition of Hemadsorption Foci, Test Compound Conc. <10 μg/ml",50%
same,inhibition at 100 µg/mL,"influenza virus [1]; unidentified influenza virus, read-out: % Inhibition of Hemadsorption Foci, Test Compound Conc. >100 μg/ml",100%
same,% Inhibition,[4]; 0.1-1.0 μg/ml,20-30%
same,% Inhibition,[4]; 1.0-10 μg/ml,30-50%
same,% Inhibition,[4]; 10-100 μg/ml,50-70%
same,% Inhibition,[4]; >100 μg/ml,50-70%
same,anti-influenza activity (in words),influenza virus [2]; compound by itself,significant anti-influenza activity
same,"Maximum Percent Change, Mitogen Induced (PHA) Human Lymph. Prolif.",[5]; 1.0-10 (unit not given),-41%
same,"Maximum Percent Change, Mitogen Induced (PHA) Human Lymph. Prolif.",[5]; .01-1.0 (unit not given),6%
same,"% Stimulation, Mitogen Induced Murine Lymphocyte Proliferation",mouse lymphocytes; 01-1.0 μg/ml,0%
same,"% Stimulation, Mitogen Induced Murine Lymphocyte Proliferation",mouse lymphocytes; 1.0-10 μg/ml,0%
same,"Maximum Percent Change, Mitogen Induced (Con A) Mouse Lymph. Prolif.",mouse lymphocytes; 1.0-10 (unit not given),-85%
same,"% Stimulation, Mitogen Induced Murine Lymphocyte Proliferation",mouse lymphocytes; 10-100 μg/ml,0%
same,"Maximum Percent Change, Mitogen Induced (Con A) Mouse Lymph. Prolif.",mouse lymphocytes; 10-100 (unit not given),-91%
same,"Maximum Percent Change, Mitogen Induced (Con A) Mouse Lymph. Prolif.",mouse lymphocytes; .01-1.0 (unit not given),-50%
